pIC50: −log10 of the molar value.
Tests used:
Chymase = target: T1, Chymase (Homo sapiens, UniProt P23946); assay: Inhibitory activity against human heart chymase in vitro.
T1 sequence (P23946 whole entry): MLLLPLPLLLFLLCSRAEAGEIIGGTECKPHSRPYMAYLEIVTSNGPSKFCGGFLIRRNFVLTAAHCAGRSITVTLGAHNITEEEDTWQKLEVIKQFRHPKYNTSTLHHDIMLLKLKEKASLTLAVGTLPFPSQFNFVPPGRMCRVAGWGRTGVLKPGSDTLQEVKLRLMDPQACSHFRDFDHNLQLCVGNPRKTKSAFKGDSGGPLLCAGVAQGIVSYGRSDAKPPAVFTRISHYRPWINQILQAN

Cathepsin G = target: T2, Cathepsin G (Homo sapiens, UniProt P08311); assay: Inhibitory activity against human neutrophil cathepsin G.
T2 sequence (P08311 whole entry): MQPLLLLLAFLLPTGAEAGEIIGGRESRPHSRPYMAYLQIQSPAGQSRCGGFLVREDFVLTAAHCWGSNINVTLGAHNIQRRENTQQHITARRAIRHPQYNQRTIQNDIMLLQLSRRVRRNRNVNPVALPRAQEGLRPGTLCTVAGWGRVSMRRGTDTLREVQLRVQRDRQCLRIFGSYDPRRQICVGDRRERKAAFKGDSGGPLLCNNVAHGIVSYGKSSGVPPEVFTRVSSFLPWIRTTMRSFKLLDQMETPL

Row | SMILES | pIC50 (Chymase) | pIC50 (Cathepsin G)
1 | O=c1n(S(=O)(=O)c2ccc(Cl)cc2)cc(O)n1-c1ccc(Cl)cc1 [1-(4-Chloro-benzenesulfonyl)-3-(4-chloro-phenyl)-imidazolidine-2,4-dione] | < 4.00 | –
2 | O=C(OCn1c(O)cn(-c2ccccc2)c1=O)c1ccccc1 [Benzoic acid 2,5-dioxo-3-phenyl-imidazolidin-1-ylmethyl ester] | < 4.00 | < 4.00

From BindingDB's records for doi:10.1021/jm960793t (Suntory, 1997)
